Assay results from patent US8022206B2 (OSI Pharmaceuticals, LLC, priority 2008, dated 2011).

Key:
RON (human) = RON (human) (Homo sapiens, UniProt Q04912); assay: RON (human) AlphaScreen kinase assay, Km of ATP; assay type: biochemical; conditions: AlphaScreen, Km of ATP; read-out: RON biochemical IC50
Method in brief: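 Detection used PT66 AlphaScreen beads added in Tris pH 7.5/NaCl/EDTA/BSA buffer, read after 1 h incubation. Vehicle-only DMSO wells served as controls.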

MET (human) = MET (human) (Homo sapiens, UniProt P08581); assay: MET (human) AlphaScreen kinase assay, Km of ATP; assay type: biochemical; conditions: AlphaScreen, Km of ATP; read-out: Met biochemical IC50
Method in brief: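 Human MET at lot-optimised concentration in 50 mM Tris pH 7.4 buffer with 1 mM DTT, compound at 1% DMSO final; enzyme starts the reaction, 60 min at RT.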

Chain of MET (human) (P08581 25-1390): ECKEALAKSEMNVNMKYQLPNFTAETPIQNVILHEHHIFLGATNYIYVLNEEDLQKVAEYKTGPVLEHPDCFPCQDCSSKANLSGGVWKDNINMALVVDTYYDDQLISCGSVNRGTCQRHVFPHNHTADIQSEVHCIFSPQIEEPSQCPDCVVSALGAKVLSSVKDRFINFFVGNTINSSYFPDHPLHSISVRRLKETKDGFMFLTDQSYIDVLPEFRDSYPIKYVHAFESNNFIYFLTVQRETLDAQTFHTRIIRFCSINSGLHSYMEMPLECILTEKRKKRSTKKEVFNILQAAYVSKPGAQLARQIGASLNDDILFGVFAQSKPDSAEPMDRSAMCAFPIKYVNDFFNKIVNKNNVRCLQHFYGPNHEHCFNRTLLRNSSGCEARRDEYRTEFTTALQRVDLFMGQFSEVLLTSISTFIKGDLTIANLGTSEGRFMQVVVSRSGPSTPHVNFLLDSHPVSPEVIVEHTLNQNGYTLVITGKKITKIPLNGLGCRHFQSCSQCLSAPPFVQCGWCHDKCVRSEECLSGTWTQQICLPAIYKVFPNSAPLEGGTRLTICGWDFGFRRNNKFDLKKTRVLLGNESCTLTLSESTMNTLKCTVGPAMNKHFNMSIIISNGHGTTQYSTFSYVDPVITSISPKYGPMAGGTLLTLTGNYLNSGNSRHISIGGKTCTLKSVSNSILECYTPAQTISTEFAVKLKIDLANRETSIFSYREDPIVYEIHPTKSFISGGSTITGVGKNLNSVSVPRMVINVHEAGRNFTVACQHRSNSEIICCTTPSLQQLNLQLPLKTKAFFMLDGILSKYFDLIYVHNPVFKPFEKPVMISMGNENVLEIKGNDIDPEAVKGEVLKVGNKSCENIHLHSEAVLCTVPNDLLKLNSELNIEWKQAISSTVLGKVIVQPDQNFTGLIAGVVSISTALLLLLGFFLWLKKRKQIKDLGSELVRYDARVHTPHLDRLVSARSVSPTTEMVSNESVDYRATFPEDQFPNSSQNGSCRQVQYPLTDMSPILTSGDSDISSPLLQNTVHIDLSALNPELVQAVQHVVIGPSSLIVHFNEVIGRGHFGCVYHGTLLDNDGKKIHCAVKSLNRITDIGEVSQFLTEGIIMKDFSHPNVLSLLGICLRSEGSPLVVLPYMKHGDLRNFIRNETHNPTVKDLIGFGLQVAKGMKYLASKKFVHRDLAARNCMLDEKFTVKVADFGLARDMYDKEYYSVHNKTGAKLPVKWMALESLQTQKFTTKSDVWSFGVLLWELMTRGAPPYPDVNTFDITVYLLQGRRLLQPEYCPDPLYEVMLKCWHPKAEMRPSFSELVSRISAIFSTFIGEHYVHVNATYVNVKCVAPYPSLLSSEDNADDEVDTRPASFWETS
Chain of RON (human) (Q04912 25-1400): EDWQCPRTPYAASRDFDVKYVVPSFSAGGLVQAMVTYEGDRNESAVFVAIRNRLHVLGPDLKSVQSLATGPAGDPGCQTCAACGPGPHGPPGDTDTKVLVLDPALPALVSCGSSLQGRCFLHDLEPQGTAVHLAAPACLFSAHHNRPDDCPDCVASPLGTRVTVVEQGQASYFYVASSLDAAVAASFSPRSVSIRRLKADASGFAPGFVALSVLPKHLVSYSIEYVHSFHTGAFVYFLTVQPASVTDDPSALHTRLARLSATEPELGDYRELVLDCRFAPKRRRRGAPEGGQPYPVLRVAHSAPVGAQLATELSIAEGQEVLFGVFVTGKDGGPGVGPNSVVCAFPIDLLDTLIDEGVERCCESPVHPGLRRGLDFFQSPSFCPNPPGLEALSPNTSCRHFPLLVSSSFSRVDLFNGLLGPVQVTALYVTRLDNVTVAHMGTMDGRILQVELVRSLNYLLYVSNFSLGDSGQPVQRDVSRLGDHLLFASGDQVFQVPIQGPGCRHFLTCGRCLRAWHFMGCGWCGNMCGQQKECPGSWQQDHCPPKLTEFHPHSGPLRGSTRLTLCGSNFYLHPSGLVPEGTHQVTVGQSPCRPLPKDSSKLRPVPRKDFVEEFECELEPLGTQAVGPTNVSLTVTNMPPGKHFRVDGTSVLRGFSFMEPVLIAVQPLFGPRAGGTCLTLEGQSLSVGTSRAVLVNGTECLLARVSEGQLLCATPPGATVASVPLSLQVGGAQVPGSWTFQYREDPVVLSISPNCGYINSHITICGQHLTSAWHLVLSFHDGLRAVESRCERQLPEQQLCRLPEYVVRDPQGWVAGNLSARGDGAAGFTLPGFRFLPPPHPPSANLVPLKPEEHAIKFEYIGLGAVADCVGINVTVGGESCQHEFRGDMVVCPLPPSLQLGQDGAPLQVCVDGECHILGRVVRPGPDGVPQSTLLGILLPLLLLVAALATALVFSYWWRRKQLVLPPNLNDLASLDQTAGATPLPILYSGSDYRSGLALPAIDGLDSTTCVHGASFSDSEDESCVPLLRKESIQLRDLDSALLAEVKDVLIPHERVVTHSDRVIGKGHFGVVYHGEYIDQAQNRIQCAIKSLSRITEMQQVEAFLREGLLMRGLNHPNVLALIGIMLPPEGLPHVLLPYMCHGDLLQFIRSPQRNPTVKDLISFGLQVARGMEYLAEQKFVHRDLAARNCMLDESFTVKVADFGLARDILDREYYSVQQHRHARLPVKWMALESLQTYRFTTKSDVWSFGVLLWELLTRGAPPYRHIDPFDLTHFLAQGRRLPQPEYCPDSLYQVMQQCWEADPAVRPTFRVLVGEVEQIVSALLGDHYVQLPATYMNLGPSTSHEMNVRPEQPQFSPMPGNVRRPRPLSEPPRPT

Row | IC50 (RON (human)) | IC50 (MET (human)) | Structure (SMILES)
1 | 500 to 5000 nM | < 500 nM | C[C@@H](Cc1ccccc1)Oc1c(N)ncc2c(-c3cnn(C4CCNCC4)c3)coc12 [Example 414, 7-((S)-1-Methyl-2-phenylethoxy)-3-(1-piperidin-4-yl-1H-pyrazol-4-yl)furo[3,2-c]pyridin-6-ylamine]
2 | < 500 nM | < 500 nM | C[C@@H](Oc1c(N)ncc2c(C3=CCN(C(=O)[C@]4(C)CCCN4)CC3)coc12)c1c(Cl)ccc(F)c1Cl [Example 160, [4-{6-Amino-7-[(1R)-1-(2,6-dichloro-3-fluorophenyl)ethoxy]furo[3,2-c]pyridin-3-yl}-3,6-dihydropyridin-1(2H)-yl][(2S)-2-methylpyrrolidin-2-yl]methanone]
3 | 500 to 5000 nM | 500 to 5000 nM | COCCCNC(=O)c1ccc(-c2coc3c(O[C@H](C)c4c(Cl)ccc(F)c4Cl)c(N)ncc23)cc1 [Example 286, 4-{6-Amino-7-[(R)-1-(2,6-dichloro-3-fluorophenyl)ethoxy]furo[3,2-c]pyridin-3-yl}-N-(3-methoxypropyl)-benzamide]
4 | 500 to 5000 nM | 500 to 5000 nM | CC(C)C(=O)N1CC=C(c2coc3c(O[C@H](C)c4c(Cl)ccc(F)c4Cl)c(N)ncc23)CC1 [Example 15, 1-(4-{6-Amino-7-[(R)-1-(2,6-dichloro-3-fluorophenyl)-ethoxy]-furo[3,2-c]pyridin-3-yl}-3,6-dihydro-2H-pyridin-1-yl)-2-methylpropan-1-one]
5 | < 500 nM | < 500 nM | C[C@@H](Oc1c(N)ncc2c(C3=CCN(C(=O)C4CCNCC4)CC3)coc12)c1c(Cl)ccc(F)c1Cl [Example 21, (4-{6-Amino-7-[(R)-1-(2,6-dichloro-3-fluorophenyl)-ethoxy]-furo[3,2-c]pyridin-3-yl}-3,6-dihydro-2H-pyridin-1-yl)-piperidin-4-ylmethanone]
6 | < 500 nM | < 500 nM | C[C@@H](Oc1c(N)ncc2c(C3=CCN(C(=O)N4CCN(C)CC4)CC3)coc12)c1c(Cl)ccc(F)c1Cl [Example 225, (4-{6-Amino-7-[(R)-1-(2,6-dichloro-3-fluorophenyl)-ethoxy]-furo[3,2-c]pyridin-3-yl}-3,6-dihydro-2H-pyridin-1-yl)-(4-methylpiperazin-1-yl)-methanone]
7 | 500 to 5000 nM | 500 to 5000 nM | CC(Oc1c(N)ncc2c(-c3cnn(C4CCNCC4)c3)coc12)c1c(Cl)ccc2ccccc12 (centres unmarked) [Example 369, 7-[1-(2-Chloronaphthalen-1-yl)ethoxy]-3-(1-piperidin-4-yl-1H-pyrazol-4-yl)furo[3,2-c]pyridin-6-ylamine]
8 | 500 to 5000 nM | 500 to 5000 nM | C[C@@H](Oc1c(N)ncc2c(C3=CCN(C(=O)C(F)(F)F)CC3)coc12)c1c(Cl)ccc(F)c1Cl [Example 56, 1-(4-{6-Amino-7-[(R)-1-(2,6-dichloro-3-fluorophenyl)-ethoxy]-furo[3,2-c]pyridin-3-yl}-3,6-dihydro-2H-pyridin-1-yl)-2,2,2-trifluoroethanone]
9 | 500 to 5000 nM | < 500 nM | C[C@@H](Oc1c(N)ncc2c(-c3cccc(C(=O)NCCN4CCCC4)c3)coc12)c1c(Cl)ccc(F)c1Cl [Example 102, 3-{6-Amino-7-[(R)-1-(2,6-dichloro-3-fluorophenyl)ethoxy]-furo[3,2-c]pyridin-3-yl}-N-(2-pyrrolidin-1-ylethyl)benzamide]
10 | < 500 nM | < 500 nM | C[C@@H](Oc1c(N)ncc2c(C3=CCN(C4CN(C(N)=O)C4)CC3)coc12)c1c(Cl)ccc(F)c1Cl [Example 324, 3-(4-{6-Amino-7-[(R)-1-(2,6-dichloro-3-fluorophenyl)ethoxy]furo[3,2-c]pyridin-3-yl}-3,6-dihydro-2H-pyridin-1-yl)azetidine-1-carboxamide]
11 | 500 to 5000 nM | 500 to 5000 nM | C[C@@H](Oc1c(N)ncc2c(-c3ccc[nH]3)coc12)c1c(Cl)ccc(F)c1Cl [Example 133, 7-[(R)-1-(2,6-Dichloro-3-fluorophenyl)ethoxy]-3-(1H-pyrrol-2-yl)furo[3,2-c]pyridin-6-amine]
12 | 500 to 5000 nM | < 500 nM | C[C@@H](Oc1c(N)ncc2c(-c3ccc(NS(C)(=O)=O)cc3)coc12)c1c(Cl)ccc(F)c1Cl [Example 76, N-(4-{6-Amino-7-[(R)-1-(2,6-dichloro-3-fluorophenyl)ethoxy]-furo[3,2-c]pyridin-3-yl}phenyl)methanesulfonamide]
13 | 500 to 5000 nM | < 500 nM | CC(Oc1c(N)ncc2c(-c3cnn(C4CCNCC4)c3)coc12)c1ccc(Br)cc1 (centres unmarked) [Example 388, 7-[1-(4-Bromophenyl)ethoxy]-3-(1-piperidin-4-yl-1H-pyrazol-4-yl)furo[3,2-c]pyridin-6-ylamine]
14 | > 20000 nM | 5000 to 20000 nM | C[C@H](Oc1c(N)ncc2ccoc12)c1nnc2ccc(-c3ccccc3)nn12 [Example 475, 7-[(1S)-1-(6-phenyl[1,2,4]triazolo[4,3-b]pyridazin-3-yl)ethoxy]furo[3,2-c]pyridin-6-amine]
15 | < 500 nM | < 500 nM | Cn1c(Cc2ccccc2)ncc(-c2ccc(COc3c(N)ncc4c(-c5cnn(C6CCNCC6)c5)coc34)c(F)c2)c1=O [Example 463, 5-{4-[6-Amino-3-(1-piperidin-4-yl-1H-pyrazol-4-yl)-furo[3,2-c]pyridin-7-yloxymethyl]-3-fluorophenyl}-2-benzyl-3-methyl-3H-pyrimidin-4-one]
16 | 500 to 5000 nM | 500 to 5000 nM | C[C@@H](Oc1c(N)ncc2c(-c3ccsc3)coc12)c1c(Cl)ccc(F)c1Cl [Example 134, 7-[(R)-(2,6-Dichloro-3-fluorophenyl)ethoxy]-3-thiophen-3-ylfuro[3,2-c]pyridin-6-ylamine]
17 | < 500 nM | < 500 nM | C[C@@H](Oc1c(N)ncc2c(C3=CCN(C(=O)[C@@H](N)CO)CC3)coc12)c1c(Cl)ccc(F)c1Cl [Example 254, (2S)-2-Amino-1-[4-{6-amino-7-[(1R)-1-(2,6-dichloro-3-fluoro-phenyl)ethoxy]furo[3,2-c]pyridin-3-yl}-3,6-dihydropyridin-1(2H)-yl]-3-hydroxypropan-1-one]
18 | > 20000 nM | 500 to 5000 nM | C[C@@H](Oc1c(N)ncc2ccoc12)c1nnc2ccc(-c3cnn(C)c3)nn12 [Example 470, 7-{(1R)-1-[6-(1-methyl-1H-pyrazol-4-yl) [1,2,4]triazolo[4,3-b]pyridazin-3-yl]ethoxy}furo[3,2-c]pyridin-6-amine]
19 | 500 to 5000 nM | < 500 nM | Cc1c(F)cccc1C(C)Oc1c(N)ncc2c(-c3cnn(C4CCNCC4)c3)coc12 (centres unmarked) [Example 380, 7-[1-(3-Fluoro-2-methylphenyl)ethoxy]-3-(1-piperidin-4-yl-1H-pyrazol-4-yl)furo[3,2-c]pyridin-6-ylamine]
20 | 500 to 5000 nM | < 500 nM | C[C@@H](Oc1c(N)ncc2c(-c3ccc(C(=O)N4CCCC4)cc3)coc12)c1c(Cl)ccc(F)c1Cl [Example 84, (4-{6-Amino-7-[(R)-1-(2,6-dichloro-3-fluorophenyl)ethoxy]-furo[3,2-c]pyridin-3-yl}phenyl)pyrrolidin-1-ylmethanone]
21 | 500 to 5000 nM | 500 to 5000 nM | C[C@@H](Oc1c(N)ncc2c(C3=CCN(C(=O)OC4CCCC4)CC3)coc12)c1c(Cl)ccc(F)c1Cl [Example 54, 4-{6-Amino-7-[(R)-1-(2,6-dichloro-3-fluorophenyl)-ethoxy]-furo[3,2-c]pyridin-3-yl}-3,6-dihydro-2H-pyridine-1-carboxylic acid cyclopentyl ester]
22 | < 500 nM | < 500 nM | C[C@@H](Oc1c(N)ncc2c(-c3cccc(CN4CCCCC4)c3)coc12)c1c(Cl)ccc(F)c1Cl [Example 91, 7-[(R)-1-(2,6-Dichloro-3-fluorophenyl)ethoxy]-3-(3-piperidin-1-ylmethylphenyl)furo[3,2-c]pyridin-6-ylamine]
23 | 500 to 5000 nM | < 500 nM | C[C@@H](Oc1c(N)ncc2c(C3=CCN(C(=O)[C@H](N)Cc4ccccc4)CC3)coc12)c1c(Cl)ccc(F)c1Cl [Example 257, (2R)-2-Amino-1-[4-{6-amino-7-[(1R)-1-(2,6-dichloro-3-fluoro-phenyl)ethoxy]furo[3,2-c]pyridin-3-yl}-3,6-dihydropyridin-1(2H)-yl]-3-phenylpropan-1-one]
24 | 500 to 5000 nM | 500 to 5000 nM | C=C(C)CC(Oc1c(N)ncc2c(-c3cnn(C4CCNCC4)c3)coc12)c1c(Cl)cccc1Cl (centres unmarked) [Example 363, 7-[1-(2,6-Dichlorophenyl)-3-methylbut-3-enyloxy]-3-(1-piperidin-4-yl-1H-pyrazol-4-yl)furo[3,2-c]pyridin-6-ylamine]
25 | 5000 to 20000 nM | 500 to 5000 nM | C[C@@H](Oc1c(N)ncc2c(C(=O)N(C)C)coc12)c1c(Cl)ccc(F)c1Cl [Example 177, 6-Amino-7-[(R)-1-(2,6-dichloro-3-fluorophenyl)ethoxy]furo[3,2-c]pyridine-3-carboxylic acid dimethylamide]
26 | 500 to 5000 nM | < 500 nM | CC(Oc1c(N)ncc2c(-c3cnn(C4CCNCC4)c3)coc12)c1c(Cl)cccc1C(F)(F)F (centres unmarked) [Example 365, 7-[1-(2-Chloro-6-trifluoromethylphenyl)ethoxy]-3-(1-piperidin-4-yl-1H-pyrazol-4-yl)furo[3,2-c]pyridin-6-ylamine]
27 | 500 to 5000 nM | 500 to 5000 nM | C[C@@H](Oc1c(N)ncc2c(-c3cccc(CO)c3)coc12)c1c(Cl)ccc(F)c1Cl [Example 57, (3-{6-Amino-7-[(R)-1-(2,6-dichloro-3-fluorophenyl)ethoxy]-furo[3,2-c]pyridin-3-yl}phenyl)methanol]

Row | Structure (SMILES) | IC50 (RON (human)) | IC50 (MET (human))
28 | C[C@@H](Oc1c(N)ncc2c(C3=CC4CCC(C3)N4C)coc12)c1c(Cl)ccc(F)c1Cl (stereo partly drawn) [Example 164, 7-[(1R)-1-(2,6-Dichloro-3-fluorophenyl)ethoxy]-3-(8-methyl-8-azabicyclo[3.2.1]oct-2-en-3-yl)furo[3,2-c]pyridin-6-amine] | < 500 nM | < 500 nM
